The record followed here is patent US20250197376A1, “PYRAZINE AMIDE DERIVATIVES” (Novartis AG, priority 2022, published 2025).

pEC50: −log10 of the molar value.

In the assay the test system is 3D7 P. falciparum strain. Nature of the assay: P. falciparum 3D7 parasite proliferation assay (SYBR Green). Particulars: Plasmodium falciparum, Erythrocyte; 3D7 P. falciparum infected human erythrocytes, 72 hours, SYBR Green fluorescence; read-out: Pf3D7 Activity. In kind it is cell-based. As for the experimental part: The following assay illustrates the invention without in any way limiting the scope of the invention. This parasite proliferation assay measures the increase in parasite DNA content using a DNA intercalating dye, SYBR Green®. 3D7 P. falciparum strain is grown in complete culturing media until parasitemia reaches 3% to 8% with O+ human erythrocytes. 20 μl of screening media is dispensed into 384 well assay plates. 50 nl of compounds of the invention (in DMSO), including antimalarial controls (mefloquine, pyrimethamine and artemisinin), are then transferred into the assay plates, as well as DMSO alone to serve as a negative control for inhibition. Then 30 μl of a suspension of a 3D7 P. falciparum infected erythrocytes in screening media is dispensed into the assay plates such that the final hematocrit is 2.5% with a final parasitemia of 0.3%. The plates are placed in a 37° C. incubator for 72 hours in a low oxygen environment containing 93% N2, 4% CO2, and 3% O2 gas mixture. 10 μl of lysis buffer (saponin, triton-X, EDTA) containing a 10× solution of SYBR Green […] in RPMI media is dispensed into the plates. The plates are lidded and kept at room temperature overnight for the lysis of the infected red blood cells. The fluorescence intensity is measured (excitation […], emission 530 nm) using the Envision™ system (Perkin Elmer). The percentage inhibition of 50%, EC50, is calculated for each compound.

Turning to `CC(C)(N)CNC(=O)c1cncc(-c2cc3cc(F)c(Cl)nc3[nH]2)n1` [Example 33, N-(2-amino-2-methylpropyl)-6-(6-chloro-5-fluoro-1H-pyrrolo[2,3-b]pyridin-2-yl)pyrazine-2-carboxamide], the pEC50 is under 7.00.
Regarding `CC(C)(N)CNC(=O)c1cncc(-c2cc3ccc(C#N)cc3[nH]2)n1` [Example 34, N-(2-amino-2-methylpropyl)-6-(6-cyano-1H-indol-2-yl)pyrazine-2-carboxamide], the pEC50 is under 7.00.
The value for `CC(C)(N)CNC(=O)c1cncc(-c2cc3ccccc3[nH]2)n1` [Example 35, N-(2-amino-2-methylpropyl)-6-(1H-indol-2-yl)pyrazine-2-carboxamide] was under 7.00.
As to `COc1cc2[nH]c(-c3cncc(C(=O)NCC(C)(C)N)n3)cc2cc1F` [Example 36, N-(2-amino-2-methylpropyl)-6-(5-fluoro-6-methoxy-1H-indol-2-yl)pyrazine-2-carboxamide], the pEC50 was under 7.00.
Take `CC(C)(N)CNC(=O)c1cncc(-c2cc3cc(Cl)nc(Cl)c3[nH]2)n1` [Example 38, N-(2-amino-2-methylpropyl)-6-(5,7-dichloro-1H-pyrrolo[2,3-c]pyridin-2-yl)pyrazine-2-carboxamide]: the pEC50 is under 7.00.
Consider `CC(C)(N)CNC(=O)c1cncc(-c2cc3cc(Cl)ncc3[nH]2)n1` [Example 39, N-(2-amino-2-methylpropyl)-6-(5-chloro-1H-pyrrolo[2,3-c]pyridin-2-yl)pyrazine-2-carboxamide], for which the pEC50 was under 7.00.
For the compound `CC(C)(N)CNC(=O)c1cncc(-c2cc3cnc(Cl)cc3[nH]2)n1` [Example 40, N-(2-amino-2-methylpropyl)-6-(6-chloro-1H-pyrrolo[3,2-c]pyridin-2-yl)pyrazine-2-carboxamide], the pEC50 is under 7.00.
As for `CC(C)(N)CNC(=O)c1cncc(-c2cc3c(Cl)nccc3[nH]2)n1` [Example 41, N-(2-amino-2-methylpropyl)-6-(4-chloro-1H-pyrrolo[3,2-c]pyridin-2-yl)pyrazine-2-carboxamide], the pEC50 is under 7.00.
With `CC(C)(N)CNC(=O)c1cncc(-c2cc3ccnc(Cl)c3[nH]2)n1` [Example 42, N-(2-amino-2-methylpropyl)-6-(7-chloro-1H-pyrrolo[2,3-c]pyridin-2-yl)pyrazine-2-carboxamide], the pEC50 was under 7.00.
With `CC(C)(N)CNC(=O)c1cncc(-c2cc3ccncc3[nH]2)n1` [Example 43, N-(2-amino-2-methylpropyl)-6-(1H-pyrrolo[2,3-c]pyridin-2-yl)pyrazine-2-carboxamide], the pEC50 is under 7.00.
In the case of `COc1cccc2cc(-c3cncc(C(=O)NCC(C)(C)N)n3)[nH]c12` [Example 44, N-(2-amino-2-methylpropyl)-6-(7-methoxy-1H-indol-2-yl)pyrazine-2-carboxamide], the pEC50 was under 7.00.
Take `Cc1ccc2c(C)c(-c3cncc(C(=O)NCC(C)(C)N)n3)[nH]c2c1` [Example 45, N-(2-Amino-2-methylpropyl)-6-(3,6-dimethyl-1H-indol-2-yl)pyrazine-2-carboxamide]: the pEC50 is over 8.00.
Take `CC(C)(N)CNC(=O)c1cncc(-c2cc3cc(S(F)(F)(F)(F)F)ccc3[nH]2)n1` [Example 46, N-(2-amino-2-methylpropyl)-6-(5-(pentafluoro-λ^6-sulfaneyl)-1H-indol-2-yl)pyrazine-2-carboxamide]: the pEC50 is 7.00 to 8.00.
As for `CC(C)(N)CNC(=O)c1cncc(-c2cc3ccc(OC(F)(F)F)cc3[nH]2)n1` [Example 47, N-(2-amino-2-methylpropyl)-6-(6-(trifluoromethoxy)-1H-indol-2-yl)pyrazine-2-carboxamide], the pEC50 was 7.00 to 8.00.
In the case of `COC(=O)c1ccc2[nH]c(-c3cncc(C(=O)NCC(C)(C)N)n3)c(C)c2c1` [Example 48, Methyl 2-(6-((2-amino-2-methylpropyl)carbamoyl)pyrazin-2-yl)-3-methyl-1H-indole-5-carboxylate], the pEC50 was 7.00 to 8.00.
The value for `CC(C)(N)CNC(=O)c1cncc(-c2[nH]c3ccccc3c2Cl)n1` [Example 49, N-(2-amino-2-methylpropyl)-6-(3-chloro-1H-indol-2-yl)pyrazine-2-carboxamide] was 7.00 to 8.00; that for `CCc1c(-c2cncc(C(=O)NCC(C)(C)N)n2)[nH]c2ccccc12` [Example 50, N-(2-amino-2-methylpropyl)-6-(3-ethyl-1H-indol-2-yl)pyrazine-2-carboxamide] was 7.00 to 8.00; that for `Cc1c(-c2cncc(C(=O)NCC(C)(C)N)n2)[nH]c2c1CCCC2` [Example 51, N-(2-amino-2-methylpropyl)-6-(3-methyl-4,5,6,7-tetrahydro-1H-indol-2-yl)pyrazine-2-carboxamide] was 7.00 to 8.00.
Regarding `CC(C)c1c(-c2cncc(C(=O)NCC(C)(C)N)n2)[nH]c2ccccc12` [Example 52, N-(2-amino-2-methylpropyl)-6-(3-isopropyl-1H-indol-2-yl)pyrazine-2-carboxamide], the pEC50 is 7.00 to 8.00.
As for `CCOC(=O)c1cc2[nH]c(-c3cncc(C(=O)NCC(C)(C)N)n3)cc2s1` [Example 53, Ethyl 5-(6-((2-amino-2-methylpropyl)carbamoyl)pyrazin-2-yl)-4H-thieno[3,2-b]pyrrole-2-carboxylate], the figure is 7.00 to 8.00; as for `CC(C)(N)CNC(=O)c1cncc(-c2[nH]c3ccccc3c2C(F)(F)F)n1` [Example 54, N-(2-amino-2-methylpropyl)-6-(3-(trifluoromethyl)-1H-indol-2-yl)pyrazine-2-carboxamide], under 7.00.
For the compound `Cc1c(-c2cncc(C(=O)NCC(C)(C)N)n2)[nH]c2c1C(=O)CC(C)(C)C2` [Example 56, N-(2-amino-2-methylpropyl)-6-(3,6,6-trimethyl-4-oxo-4,5,6,7-tetrahydro-1H-indol-2-yl)pyrazine-2-carboxamide], the pEC50 is under 7.00.
Turning to `CC(C)(N)CNC(=O)c1cncc(-c2[nH]c3ccccc3c2C#N)n1` [Example 57, N-(2-amino-2-methylpropyl)-6-(3-cyano-1H-indol-2-yl)pyrazine-2-carboxamide], the pEC50 was under 7.00.
`Cc1c(-c2cncc(C(=O)NCC3(N)CCC3)n2)[nH]c2ccc(OC(F)(F)F)cc12` [Example 58, N-((1-aminocyclobutyl)methyl)-6-(3-methyl-5-(trifluoromethoxy)-1H-indol-2-yl)pyrazine-2-carboxamide]: the pEC50 was over 8.00.
As for `Cc1c(-c2cncc(C(=O)NCCC(C)(C)N)n2)[nH]c2ccc(OC(F)(F)F)cc12` [Example 59, N-(3-amino-3-methylbutyl)-6-(3-methyl-5-(trifluoromethoxy)-1H-indol-2-yl)pyrazine-2-carboxamide], the figure is over 8.00.
As for `Cc1c(-c2cncc(C(=O)NCCN)n2)[nH]c2ccc(OC(F)(F)F)cc12` [Example 60, N-(2-aminoethyl)-6-(3-methyl-5-(trifluoromethoxy)-1H-indol-2-yl)pyrazine-2-carboxamide], the pEC50 was 7.00 to 8.00.
The value for `Cc1c(-c2cncc(C(=O)NCC3(N)CCOCC3)n2)[nH]c2ccc(OC(F)(F)F)cc12` [Example 61, N-((4-aminotetrahydro-2H-pyran-4-yl)methyl)-6-(3-methyl-5-(trifluoromethoxy)-1H-indol-2-yl)pyrazine-2-carboxamide] was 7.00 to 8.00.
Regarding `Cc1c(-c2cncc(C(=O)N(C)CC(C)(C)N)n2)[nH]c2ccc(OC(F)(F)F)cc12` [Example 62, N-(2-amino-2-methylpropyl)-N-methyl-6-(3-methyl-5-(trifluoromethoxy)-1H-indol-2-yl)pyrazine-2-carboxamide], the pEC50 was 7.00 to 8.00.
Regarding `Cc1c(-c2cncc(C(=O)NCCCN)n2)[nH]c2ccc(OC(F)(F)F)cc12` [Example 63, N-(3-aminopropyl)-6-(3-methyl-5-(trifluoromethoxy)-1H-indol-2-yl)pyrazine-2-carboxamide], the pEC50 was 7.00 to 8.00.
Regarding `Cc1c(-c2cncc(C(=O)NC34CC(N)(C3)C4)n2)[nH]c2ccc(OC(F)(F)F)cc12` [Example 64, N-(3-aminobicyclo[1.1.1]pentan-1-yl)-6-(3-methyl-5-(trifluoromethoxy)-1H-indol-2-yl)pyrazine-2-carboxamide], the pEC50 is 7.00 to 8.00.
Turning to `Cc1c(-c2cncc(C(=O)N[C@H]3CC[C@H](N)CC3)n2)[nH]c2ccc(OC(F)(F)F)cc12` [Example 65, N-((1r,4r)-4-aminocyclohexyl)-6-(3-methyl-5-(trifluoromethoxy)-1H-indol-2-yl)pyrazine-2-carboxamide], the pEC50 is 7.00 to 8.00.
As for `Cc1c(-c2cncc(C(=O)N(C)CC(C)(C)N)n2)[nH]c2ccccc12` [Example 66, N-(2-amino-2-methylpropyl)-N-methyl-6-(3-methyl-1H-indol-2-yl)pyrazine-2-carboxamide], the figure is under 7.00.
Regarding `N[C@H]1CC[C@H](NC(=O)c2cncc(-c3cc4cc(OC(F)(F)F)ccc4[nH]3)n2)CC1` [Example 67, N-((1r,4r)-4-aminocyclohexyl)-6-(5-(trifluoromethoxy)-1H-indol-2-yl)pyrazine-2-carboxamide], the pEC50 was under 7.00.
On to `Cc1c(-c2cncc(C(=O)NCC(C)(C)C)n2)[nH]c2ccccc12` [Example 68, 6-(3-methyl-1H-indol-2-yl)-N-neopentylpyrazine-2-carboxamide], for which the pEC50 is under 7.00.
